Reference: PubChem BioAssay AID2060353 (Molecular Pharmacology Branch, DTP, NCI, 2025)
“And” between values parts separate entries of the source, which are not always exact repeats. Equal entries are not always repeated. Values belong to the compound of their own block, whether it stands above or below them.

System: 521955-158-R2-J5-PDC spheroids with stroma, growth inhibition
Assay: Anticancer human tumor 521955-158-R2-J5-PDC patient-derived pancreatic carcinoma cell line growth inhibition [TAK]
Conditions: for viability, T/C: stronger effect = lower value
Description: Combinatorial screen of targeted agents with TAK-243 and ipatasertib in multi-cell type tumor spheroids
A high-throughput screen of multi-cell type tumor spheroids was designed to identify active combinations of targeted small molecules and TAK-243 or ipatasertib. Complex spheroids include a stromal component modeled by human endothelial cells (HUVEC) and fibroblasts modeled by human mesenchymal stem cells (MSCs). The concentration ranges selected for each drug and investigational agent were based upon clinically achievable concentrations if the clinical Cmax of the agent was known.
Compounds. The drugs and investigational agents: TAK-243 (785004), ipatasertib (767898), everolimus (733504), selumetinib (741078), bortezomib (756655), trametinib (758246), ixazomib (758254), vemurafenib (761431), dabrafenib (764134), sapanisertib (764658), alpelisib (765974), and copanlisib (816437), were obtained from the National Cancer Institute (NCI) Developmental Therapeutics Program Chemical Repository. The FDA-approved anticancer drug set is available from the NCI Developmental Therapeutics Program. […] The stock solutions were prepared in dimethyl sulfoxide (DMSO, Sigma-Aldrich, St. Louis, MO, cat. D2650) at 800-fold the tested concentration and stored at -70 degrees C prior to their use. All drugs and investigational agents were tested over a range starting from a high concentration at or near the clinical Cmax and decreasing in half-log increments. If the clinical Cmax for an agent had not been determined, the highest concentration tested was 10 microM.
NCI60 Cell Culture. NCI60 cell lines were obtained from the NCI Developmental Therapeutics Program Tumor Repository. For each lot of cells, the Repository performed Applied Biosystems AmpFLSTR Identifiler testing with PCR amplification to confirm consistency with the published Identifier STR profile for each cell line. Cells were kept in continuous culture for no more than 20 passages. The optimal seeding densities for each of the cell lines at each time point assessed were determined prior to performing the concentration response studies. Briefly, the NCI60 human tumor lines were grown as monolayers in RPMI 1640 medium supplemented with 10% FBS and 2 mmol/L L-glutamine.
An additional 2 lines were from the NCI60 cell line panel including melanomas, MALME-3M and SK-MEL-2. Pooled donor human umbilical vein endothelial cells (HUVEC, Lonza, cat. CC-2519) and human mesenchymal stem cells (hMSC, Lonza, cat. PT-2501) were purchased from Lonza (Walkersville, MD).
PDMR cell lines were grown in complete medium (DC medium): Dulbecco's modified Eagle's medium (DMEM)/F12 supplemented with 5% fetal bovine serum (FBS), 2 mM L-glutamine, 100 U/mL penicillin and 100 µg/ml streptomycin, 0.4 µg/ml hydrocortisone, 10 ng/ml epidermal growth factor (EGF) recombinant human protein, 24 µg/mL adenine, and 0.1 mg/mL primocin. During culture from frozen stock vials, PDMR cells were cultured in the same medium containing 10 µM Y-27632 (see Table 3). The PDCs were cultured in complete DMEM/F12 media without 10 microM Y-27632 dihydrochloride for at least two passages prior to the screen. The pooled donor HUVEC and hMSC were cultured in endothelial cell growth medium 2 (PromoCell, Heidelberg, Germany, cat. C-22011) and mesenchymal stem cell growth medium 2 (PromoCell, cat. C-28009), respectively. For all experiments, HUVEC and hMSC were used at passages </=5.
For the pre-screen, cell seeding densities were determined from a titration spanning the range from 5,000 to 313 cells per well. The mct-spheroids including 60% malignant cells, 25% HUVEC and 15% MSC dispensed as a mixture into U-bottom Ultra-Low Attachment 384-well plates (Corning, NY)
High-throughput Drug Combination Screening.
Prior to their inoculation into 384-well plates, malignant cells, HUVEC, and hMSC were removed from T flasks using TrypLE express (Thermo Fisher Scientific, cat. 12605036) and harvested by centrifugation for 5 min at 233 x g. […]
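Note: spheroids exposed to drugs for seven days before readout.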
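Throughout, for viability, T/C: 100% = DMSO vehicle control viability.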

Structure (SMILES): CC(=O)Nc1cccc(-n2c(=O)n(C3CC3)c(=O)c3c(Nc4ccc(I)cc4F)n(C)c(=O)c(C)c32)c1
viability, T/C (compound 94.9 pM): 104% and 87% | viability, T/C (compound 0.0003 µM): 79.1% and 65.4% | viability, T/C (compound 0.000949 µM): 52% and 51.3% | viability, T/C (compound 0.003 µM): 48.2% and 48.1% | viability, T/C (compound 0.00949 µM): 38.6% and 39.5% | viability, T/C (compound 0.03 µM): 27.5% and 24.4% | IC50 (curve of compound): 1.87 nM and 1.69 nM

Structure (SMILES): CC(C)(C)c1nc(-c2cccc(NS(=O)(=O)c3c(F)cccc3F)c2F)c(-c2ccnc(N)n2)s1
viability, T/C (compound 0.0316 µM): 102% and 112% | viability, T/C (compound 0.1 µM): 112% and 117% | viability, T/C (compound 0.316 µM): 140% and 170% | viability, T/C (compound 1 µM): 160% and 186% | viability, T/C (compound 3.16 µM): 114% and 125% | viability, T/C (compound 10 µM): 88.9% and 92.2% | IC50 (curve of compound): > 10000 nM

Structure (SMILES): CC(C)n1nc(-c2ccc3oc(N)nc3c2)c2c(N)ncnc21
viability, T/C (compound 0.000316 µM): 107% and 99.8% | viability, T/C (compound 0.001 µM): 89.1% and 102% | viability, T/C (compound 0.00316 µM): 80.7% and 95.7% | viability, T/C (compound 0.01 µM): 79.8% and 95.6% | viability, T/C (compound 0.0316 µM): 51.6% and 63.9% | viability, T/C (compound 0.1 µM): 39% and 41.8% | IC50 (curve of compound): 47.2 nM and 65.2 nM

Structure (SMILES): COC1CC2CCC(C)C(O)(O2)C(=O)C(=O)N2CCCCC2C(=O)OC(C(C)CC2CCC(OCCO)C(OC)C2)CC(=O)C(C)C=C(C)C(O)C(OC)C(=O)C(C)CC(C)C=CC=CC=C1C (stereo not given)
viability, T/C (compound 0.000316 µM): 102% and 111% | viability, T/C (compound 0.001 µM): 105% and 97.8% | viability, T/C (compound 0.00316 µM): 90.8% and 91.6% | viability, T/C (compound 0.01 µM): 93.4% and 91.1% | viability, T/C (compound 0.0316 µM): 86.8% and 89.5% | viability, T/C (compound 0.1 µM): 73.8% and 66.2% | IC50 (curve of compound): > 100 nM

Structure (SMILES): COc1c(OCCCN2CCOCC2)ccc2c3n(c(=NC(=O)c4cnc(N)nc4)nc12)CCN3
viability, T/C (compound 0.00316 µM): 96.6% and 79.7% | viability, T/C (compound 0.01 µM): 71.7% and 68.7% | viability, T/C (compound 0.0316 µM): 48.8% and 53.6% | viability, T/C (compound 0.1 µM): 29.3% | viability, T/C (compound 0.316 µM): 9.38% and 8.89% | viability, T/C (compound 1 µM): 8.06% and 7.65% | IC50 (curve of compound): 28.8 nM and 36.1 nM

Structure (SMILES): COC1CC2CCC(C)C(O)(O2)C(=O)C(=O)N2CCCCC2C(=O)OC(C(C)CC2CCC(OCCO)C(OC)C2)CC(=O)C(C)C=C(C)C(O)C(OC)C(=O)C(C)CC(C)C=CC=CC=C1C (stereo not given) + CC(C)NCC(C(=O)N1CCN(c2ncnc3c2C(C)CC3O)CC1)c1ccc(Cl)cc1
IC50 (curve of first compound, second compound 0.3 µM): > 100 nM | IC50 (curve of first compound, second compound 0.949 µM): > 100 nM | IC50 (curve of first compound, second compound 3 µM): > 100 nM | IC50 (curve of first compound, second compound 9.49 µM): > 100 nM | IC50 (curve of first compound, second compound 30 µM): < 0.316 nM | viability, T/C (second compound 0.3 µM, first compound 0.000316 µM): 118% | viability, T/C (second compound 0.3 µM, first compound 0.001 µM): 95.9% | viability, T/C (second compound 0.3 µM, first compound 0.00316 µM): 77.3% | viability, T/C (second compound 0.3 µM, first compound 0.01 µM): 76% | viability, T/C (second compound 0.3 µM, first compound 0.0316 µM): 82.4% | viability, T/C (second compound 0.3 µM, first compound 0.1 µM): 65.5% | viability, T/C (second compound 0.949 µM, first compound 0.000316 µM): 79.4% | viability, T/C (second compound 0.949 µM, first compound 0.001 µM): 75.1% | viability, T/C (second compound 0.949 µM, first compound 0.00316 µM): 79.8% | viability, T/C (second compound 0.949 µM, first compound 0.01 µM): 79.7% | viability, T/C (second compound 0.949 µM, first compound 0.0316 µM): 89% | viability, T/C (second compound 0.949 µM, first compound 0.1 µM): 86.7% | viability, T/C (second compound 3 µM, first compound 0.000316 µM): 97.8% | viability, T/C (second compound 3 µM, first compound 0.001 µM): 98.3% | viability, T/C (second compound 3 µM, first compound 0.00316 µM): 93.9% | viability, T/C (second compound 3 µM, first compound 0.01 µM): 80.9% | viability, T/C (second compound 3 µM, first compound 0.0316 µM): 75.7% | viability, T/C (second compound 3 µM, first compound 0.1 µM): 76.2% | viability, T/C (second compound 9.49 µM, first compound 0.000316 µM): 78.3% | viability, T/C (second compound 9.49 µM, first compound 0.001 µM): 84.5% | viability, T/C (second compound 9.49 µM, first compound 0.00316 µM): 78.6% | viability, T/C (second compound 9.49 µM, first compound 0.01 µM): 68.3% | viability, T/C (second compound 9.49 µM, first compound 0.0316 µM): 60.9% | viability, T/C (second compound 9.49 µM, first compound 0.1 µM): 60.6% | viability, T/C (second compound 30 µM, first compound 0.000316 µM): 46.4% | viability, T/C (second compound 30 µM, first compound 0.001 µM): 42.2% | viability, T/C (second compound 30 µM, first compound 0.00316 µM): 33.8% | viability, T/C (second compound 30 µM, first compound 0.01 µM): 26.7% | viability, T/C (second compound 30 µM, first compound 0.0316 µM): 31.2% | viability, T/C (second compound 30 µM, first compound 0.1 µM): 32.4%

The next lines start with results.

IC50 (curve of compound): 5.96 nM and 6.03 nM
Structure (SMILES): CC(C)CC(NC(=O)C(Cc1ccccc1)NC(=O)c1cnccn1)B(O)O (stereo not given)
viability, T/C (compound 31.6 pM): 94.9% and 116% | viability, T/C (compound 0.0001 µM): 90.7% and 91.3% | viability, T/C (compound 0.000316 µM): 91.3% and 92.2% | viability, T/C (compound 0.001 µM): 95.1% and 117% | viability, T/C (compound 0.00316 µM): 105% and 99.9% | viability, T/C (compound 0.01 µM): 12.7% and 7.91%

IC50 (curve of compound): 50.8 nM and 47 nM
Structure (SMILES): CC(C)CC(NC(=O)CNC(=O)c1cc(Cl)ccc1Cl)B1OC(=O)CC(CC(=O)O)(C(=O)O)O1 (stereo not given)
viability, T/C (compound 0.000316 µM): 102% and 105% | viability, T/C (compound 0.001 µM): 111% and 93.8% | viability, T/C (compound 0.00316 µM): 96.3% and 92% | viability, T/C (compound 0.01 µM): 93.5% and 92.7% | viability, T/C (compound 0.0316 µM): 80.1% and 72.8% | viability, T/C (compound 0.1 µM): 10% and 7.07%

IC50 (compound alone, run of 02/20/2020): > 30000 nM
Structure (SMILES): CC(C)NCC(C(=O)N1CCN(c2ncnc3c2C(C)CC3O)CC1)c1ccc(Cl)cc1 (stereo not given)
viability, T/C (compound 0.3 µM): 101% [middle of 10 runs] | viability, T/C (compound 0.949 µM): 81.5% [middle of 10 runs] | viability, T/C (compound 3 µM): 82.7% [middle of 10 runs] | viability, T/C (compound 30 µM): 56.5% [middle of 10 runs]

IC50 (curve of compound): > 100000 nM
Structure (SMILES): CCCS(=O)(=O)Nc1ccc(F)c(C(=O)c2c[nH]c3ncc(-c4ccc(Cl)cc4)cc23)c1F
viability, T/C (compound 0.316 µM): 77.5% and 89.5% | viability, T/C (compound 1 µM): 89% and 87.9% | viability, T/C (compound 3.16 µM): 132% and 116% | viability, T/C (compound 10 µM): 149% and 164% | viability, T/C (compound 31.6 µM): 165% and 24.2% | viability, T/C (compound 100 µM): 187% and 232%

IC50 (curve of compound): 2680 nM and 1740 nM
Structure (SMILES): Cc1nc(NC(=O)N2CCCC2C(N)=O)sc1-c1ccnc(C(C)(C)C(F)(F)F)c1 (stereo not given)
viability, T/C (compound 0.0316 µM): 90.1% and 88.9% | viability, T/C (compound 0.1 µM): 88.6% and 71.4% | viability, T/C (compound 0.316 µM): 77.4% and 65.2% | viability, T/C (compound 1 µM): 62.1% and 51.6% | viability, T/C (compound 3.16 µM): 49.1% and 47.6% | viability, T/C (compound 10 µM): 35.7% and 40.8%

IC50 (curve of compound): 38.2 nM and 117 nM
Structure (SMILES): Cn1cnc2c(F)c(Nc3ccc(Br)cc3Cl)c(C(=O)NOCCO)cc21
viability, T/C (compound 0.00949 µM): 77.5% and 65.7% | viability, T/C (compound 0.03 µM): 49.3% and 60.3% | viability, T/C (compound 0.0949 µM): 45.1% and 51.2% | viability, T/C (compound 0.3 µM): 42.5% and 42.8% | viability, T/C (compound 0.949 µM): 40.2% and 36% | viability, T/C (compound 3 µM): 34% and 28.5%
